Source: US9409857B2 (SHANGHAI RIGHTHAND PHARMTECH. CO., LTD., priority 2012, dated 2016)
≈ marks a conversion by molar mass, not a printed value. Where “and” joins values, the source holds several entries; their conditions need not be identical. Identical values can stand only once. Like-named read-outs stand apart in the source and are kept apart here.

How the values were obtained:
[1] = Determination of stability under accelerated testing condition (HPLC total impurities); assay type: physicochemical; conditions: (40±2)°C, relative humidity (75±5)%, Batch 1-3 on separate table lines
Procedure: Conditions for chromatogram: octadecyl silane chemically bonded silica was used as a filler; a mixed solution wherein methanol-acetonitrile-phosphate buffer (10 mM/L, pH adjusted to 2.7 with phosphoric acid)=40:20:40 was used as mobile phase; column temperature was 40° C.; detecting wavelength was 220 nm. The purity of each of the products in the above described Example was determined using internal standard method. […] The stability of each of the batches was studied via High Performance Liquid Chromatography (HPLC) and the content percentage of the total related substances (total impurities) was determined in addition to the peaks of Agomelatine and acid radicals.

[2] = Determination of water solubility by external standard method
physchem = conditions: thermodynamic from solid
[3] = pH 7

Agomelatine sulfuric acid complex
total impurities % (total related substances) ([1]; time 0 month): 0.11% and 0.12% and 0.14% | total impurities % (total related substances) ([1]; time 1 month): 0.12% and 0.14% | total impurities % (total related substances) ([1]; time 2 months): 0.12% and 0.13% and 0.15% | total impurities % (total related substances) ([1]; time 3 months): 0.13% and 0.15% | total impurities % (total related substances) ([1]; time 6 months): 0.13% and 0.14% and 0.16% | Agomelatine content (solubility) ([2]; pH = 7.0 buffer solution): 330 µg/mL | Agomelatine content (solubility) ([2]; pury water): 340 µg/mL

Agomelatine benzenesulfonic acid complex
total impurities % (total related substances) ([1]; time 0 month): 0.11% and 0.12% and 0.14% | total impurities % (total related substances) ([1]; time 1 month): 0.12% and 0.14% | total impurities % (total related substances) ([1]; time 2 months): 0.12% and 0.14% and 0.16% | total impurities % (total related substances) ([1]; time 3 months): 0.14% and 0.16% | total impurities % (total related substances) ([1]; time 6 months): 0.14% and 0.15% and 0.17%

COc1ccc2cccc(CCNC(C)=O)c2c1 [Agomelatine crystallographic form II, N-[2-(7-methoxyl-1-naphthyl)ethyl]acetamide]
solubility (physchem; pH 7, aqueous buffer): 260 µg/mL (≈ 1070 µM) | solubility (physchem; simulated gastric fluid): 290 µg/mL (≈ 1190 µM) | solubility (physchem; water): 270 µg/mL (≈ 1110 µM)

COc1ccc2cccc(CCNC(C)=O)c2c1.CS(=O)(=O)O [Agomelatine methanesulfonic acid complex]
Agomelatine content (solubility) [3]: 320 µg/mL | total impurities % (total related substances) ([1]; time 0 month): 0.21% and 0.22% and 0.24% | total impurities % (total related substances) ([1]; time 1 month): 0.22% and 0.24% | total impurities % (total related substances) ([1]; time 2 months): 0.22% and 0.23% and 0.25% | total impurities % (total related substances) ([1]; time 3 months): 0.23% and 0.25% | total impurities % (total related substances) ([1]; time 6 months): 0.23% and 0.24% and 0.26%
